{"source": "patent EP4810052A2", "about": "“HCRHR2 SELECTIVE POLYPEPTIDES” (Gubra A/S, priority 2023, dated 2026)", "key": {"[1]": {"test": "Body mass and body fat content in mouse model of diet-induced obesity (DIO)", "type": "in vivo", "details": "DIO mice", "method": "SEQ ID NO: 3, SEQ ID NO: 6, SEQ ID NO: 238, SEQ ID NO: 16 and SEQ ID NO: 215 were assessed for their ability to reduce body mass and body fat content in a mouse model of diet-induced obesity (DIO).\nMale C57BL/6JRj mice were obtained from JanVier (JanVier Labs, France) at 5 weeks of age. The animals were group-housed during obesity induction and then single housed 2 weeks prior to study start. They were housed under a 12/12 h dark-light cycle, light off at 3 PM. Room temperature was controlled to 22°C ± 1°C, with 60 % ± 20% humidity. For 22-23 weeks prior to treatment start and throughout the study, the animals had ad libitum access to high-fat diet (60% kcal fat, D12492, Research Diets) and tap water.\nThe animals were randomized according to lean mass (EchoMRI) and body weight. Animals were dosed subcutaneously […] for 30-32 days. In study 1, the animals were dosed with vehicle or SEQ ID NO: 3 (10, 30, 60 or 100 nmol/kg). In study 2, the animals were dosed with vehicle or SEQ ID NO: 6 (10 or 30 nmol/kg), SEQ ID NO: 238 (10 or 30 nmol/kg), SEQ ID NO: 16 (10 or 30 nmol/kg), SEQ ID NO: 215 (10 or 30 nmol/kg) or SEQ ID NO: 3 (30 nmol/kg).\nBody weight and food intake were recorded daily until day 28 and body composition evaluated on day 26 using EchoMRI. At termination, blood for HbA1c analyses were collected and M. gastrocnemius and M. soleus were weighed.\nStatistical significance was evaluated using One-way analysis of variance with Dunnett's multiple comparison test. P < 0.05 was considered statistically significant."}, "pCRHR1": {"system": "pCRHR1", "test": "cAMP potency, transiently transfected CHO-K1 cells, pCRHR1", "type": "cell-based, pig", "details": "transiently transfected CHO-K1, average n=3; read-out: Transient cell system EC50 (nM) pCRHR 1", "method": "Selected peptides were tested for potency on different species (mouse, rat, porcine) using transiently transfected CHO-K1 cells using the general procedure."}, "hCRHR2a": {"biological_target": "T1, hCRHR2a (Homo sapiens, UniProt Q13324)", "T1 construct": "DYK (FLAG); host or cells: CHO-K1, transiently transfected", "T1 sequence (Q13324 1-411)": "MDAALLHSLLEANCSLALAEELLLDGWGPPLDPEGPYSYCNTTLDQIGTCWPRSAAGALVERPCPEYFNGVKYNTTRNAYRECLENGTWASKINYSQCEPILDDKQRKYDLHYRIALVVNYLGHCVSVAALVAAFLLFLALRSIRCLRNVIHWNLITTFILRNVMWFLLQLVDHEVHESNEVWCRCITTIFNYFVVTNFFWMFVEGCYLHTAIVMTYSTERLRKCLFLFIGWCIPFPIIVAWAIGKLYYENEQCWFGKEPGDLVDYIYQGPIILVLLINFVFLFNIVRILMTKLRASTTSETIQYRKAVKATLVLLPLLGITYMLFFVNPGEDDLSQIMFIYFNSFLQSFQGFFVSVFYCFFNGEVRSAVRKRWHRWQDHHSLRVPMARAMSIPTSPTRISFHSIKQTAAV", "test": "cAMP potency, transiently transfected CHO-K1 cells, hCRHR2a", "type": "cell-based", "details": "transiently transfected CHO-K1, average n=3; read-out: Transient cell system EC50 (nM) hCRHR 2a"}, "[2]": {"details": "Table 16 study, 10 nmol/kg, ± SEM"}, "[3]": {"details": "Table 16 study, 30 nmol/kg, ± SEM"}, "[4]": {"details": "Table 16 study, 60 nmol/kg, ± SEM"}, "[5]": {"details": "Table 16 study, 100 nmol/kg, ± SEM"}, "[6]": {"details": "Table 17 study, 30 nmol/kg, ± SEM"}}, "note": "Marks after values point to notes of the source that are not given here. Starred links: 1 amine or outer side, 2 acyl side, 3 side chain; linkers in the order of their positions; H or OH if unused. Residues, ends and D or L forms follow the SMILES beside them. Groups on a side chain read outwards from the residue. *: point of attachment. C20 diacid = O=C(O)CCCCCCCCCCCCCCCCCCC(=O)*; γGlu = O=C(O)[C@H](CCC(=O)[*:2])N[*:1]; AEEA = NCCOCCOCC(=O)O", "data": [{"smiles": "CC[C@H](C)[C@H](N)C(=O)N[C@H](C(=O)N[C@@H](CC(C)C)C(=O)N[C@@H](CO)C(=O)N[C@@H](CC(C)C)C(=O)N[C@@H](CC(=O)O)C(=O)N[C@H](C(=O)N1CCC[C@H]1C(=O)N[C@H](C(=O)NCC(=O)N[C@@H](CC(C)C)C(=O)N[C@@H](CC(C)C)C(=O)N[C@@H](CCC(N)=O)C(=O)N[C@H](C(=O)N[C@@H](CC(C)C)C(=O)N[C@@H](CC(C)C)C(=O)N[C@@H](CCC(=O)O)C(=O)N[C@@H](CCC(N)=O)C(=O)N[C@@H](C)C(=O)N[C@@H](CCCNC(=N)N)C(=O)N[C@@H](C)C(=O)N[C@@H](CCCNC(=N)N)C(=O)N[C@@H](C)C(=O)N[C@@H](C)C(=O)N[C@@H](CCCNC(=N)N)C(=O)N[C@@H](CCC(=O)O)C(=O)N[C@@H](CCC(N)=O)C(=O)N[C@@H](C)C(=O)N[C@@H](CCCCNC(=O)COCCOCCNC(=O)COCCOCCNC(=O)CC[C@H](NC(=O)CC[C@H](NC(=O)CCCCCCCCCCCCCCCCCCC(=O)O)C(=O)O)C(=O)O)C(=O)N[C@H](C(=O)N[C@@H](CC(N)=O)C(=O)N[C@@H](C)C(=O)N[C@@H](CCC(=O)O)C(=O)N[C@H](C(=O)N[C@@H](CC(C)C)C(=O)N[C@@H](C)C(=O)N[C@@H](CCC(=O)O)C(=O)N[C@H](C(N)=O)C(C)C)[C@@H](C)CC)[C@@H](C)O)[C@@H](C)CC)[C@@H](C)CC)C(C)C)C(C)C", "note": "[SEQ ID NO: 3] (H-IVLSLDVPIGLLQILLEQARARAAREQAK([AEEA-AEEA-γGlu-γGlu-C20 diacid])TNAEILAEV-NH2)", "values": [{"measurement": "relative body weight", "setting": "[1]; 28 days, compared to vehicle", "result": "prolonged dose-dependent reduction"}, {"measurement": "Blood HbA1c", "setting": "[1]; Table 16 study, 10 nmol/kg", "result": "4.3 ± 0.1", "unit": "%"}, {"measurement": "M. Gastrocnemius", "setting": "[1]; Table 16 study, 10 nmol/kg", "result": "0.17 ± 0.005", "unit": "g"}, {"measurement": "M. Soleus", "setting": "[1]; Table 16 study, 10 nmol/kg", "result": "0.011 ± 0.0005", "unit": "g"}, {"measurement": "BW at termination", "setting": "[1]; [2]", "result": "41.9 ± 1.5", "unit": "g"}, {"measurement": "Fat mass change from baseline", "setting": "[1]; [2]", "result": "-7.7 ± 0.7", "unit": "g"}, {"measurement": "Lean mass change from baseline", "setting": "[1]; [2]", "result": "1.4 ± 0.3", "unit": "g"}, {"measurement": "Relative body weight change at termination", "setting": "[1]; [2]", "result": "94.3 ± 1.6", "unit": "%"}, {"measurement": "Blood HbA1c", "setting": "[1]; Table 16 study, 30 nmol/kg", "result": "4.1 ± 0.1", "unit": "%"}, {"measurement": "M. Gastrocnemius", "setting": "[1]; Table 16 study, 30 nmol/kg", "result": "0.17 ± 0.003", "unit": "g"}, {"measurement": "M. Soleus", "setting": "[1]; Table 16 study, 30 nmol/kg", "result": "0.012 ± 0.0005", "unit": "g"}, {"measurement": "BW at termination", "setting": "[1]; [3]", "result": "38.2 ± 1.0", "unit": "g"}, {"measurement": "Fat mass change from baseline", "setting": "[1]; [3]", "result": "-10.2 ± 0.6", "unit": "g"}, {"measurement": "Lean mass change from baseline", "setting": "[1]; [3]", "result": "0.4 ± 0.4", "unit": "g"}, {"measurement": "Relative body weight change at termination", "setting": "[1]; [3]", "result": "89.0 ± 2.2", "unit": "%"}, {"measurement": "Blood HbA1c", "setting": "[1]; Table 16 study, 60 nmol/kg", "result": "4.15 ± 0.1", "unit": "%"}, {"measurement": "M. Gastrocnemius", "setting": "[1]; Table 16 study, 60 nmol/kg", "result": "0.16 ± 0.004", "unit": "g"}, {"measurement": "M. Soleus", "setting": "[1]; Table 16 study, 60 nmol/kg", "result": "0.012 ± 0.0004", "unit": "g"}, {"measurement": "BW at termination", "setting": "[1]; [4]", "result": "38.5 ± 0.6", "unit": "g"}, {"measurement": "Fat mass change from baseline", "setting": "[1]; [4]", "result": "-10.8 ± 0.6", "unit": "g"}, {"measurement": "Lean mass change from baseline", "setting": "[1]; [4]", "result": "0.8 ± 0.3", "unit": "g"}, {"measurement": "Relative body weight change at termination", "setting": "[1]; [4]", "result": "89.9 ± 1.9", "unit": "%"}, {"measurement": "Blood HbA1c", "setting": "[1]; Table 16 study, 100 nmol/kg", "result": "4.1 ± 0.1", "unit": "%"}, {"measurement": "M. Gastrocnemius", "setting": "[1]; Table 16 study, 100 nmol/kg", "result": "0.17 ± 0.003", "unit": "g"}, {"measurement": "M. Soleus", "setting": "[1]; Table 16 study, 100 nmol/kg", "result": "0.011 ± 0.0006", "unit": "g"}, {"measurement": "BW at termination", "setting": "[1]; [5]", "result": "37.3 ± 0.6", "unit": "g"}, {"measurement": "Fat mass change from baseline", "setting": "[1]; [5]", "result": "-11.2 ± 0.6", "unit": "g"}, {"measurement": "Lean mass change from baseline", "setting": "[1]; [5]", "result": "0.8 ± 0.2", "unit": "g"}, {"measurement": "Relative body weight change at termination", "setting": "[1]; [5]", "result": "87.7 ± 1.3", "unit": "%"}, {"measurement": "Blood HbA1c", "setting": "[1]; Table 17 study, 30 nmol/kg", "result": "4.2 ± 0.1", "unit": "%"}, {"measurement": "M. Gastrocnemius", "setting": "[1]; Table 17 study, 30 nmol/kg", "result": "0.19 ± 0.003* * g"}, {"measurement": "M. Soleus", "setting": "[1]; Table 17 study, 30 nmol/kg", "result": "0.013 ± 0.0006", "unit": "g"}, {"measurement": "Body weight at termination", "setting": "[1]; [6]", "result": "39.3 ± 0.9", "unit": "g"}, {"measurement": "Fat mass change from baseline", "setting": "[1]; [6]", "result": "-9.5 ± 0.6", "unit": "g"}, {"measurement": "Lean mass change from baseline", "setting": "[1]; [6]", "result": "-0.2 ± 0.2", "unit": "g"}, {"measurement": "Relative body weight change at termination", "setting": "[1]; [6]", "result": "82.4 ± 1.6", "unit": "%"}, {"measurement": "EC50", "setting": "pCRHR1", "result": "> 5000", "unit": "nM"}, {"measurement": "EC50", "setting": "hCRHR2a", "result": 0.016, "unit": "nM"}]}]}
